Data on 21 molecules can be found in patent US10160755B2 (Plexxikon Inc., priority 2015, dated 2018).

Experiment [1] deals with T1, FLT3-ITD (Homo sapiens, UniProt P36888).
T1 construct: FLT3-ITD; Invitrogen #PV6190
T1 sequence (P36888 1-993): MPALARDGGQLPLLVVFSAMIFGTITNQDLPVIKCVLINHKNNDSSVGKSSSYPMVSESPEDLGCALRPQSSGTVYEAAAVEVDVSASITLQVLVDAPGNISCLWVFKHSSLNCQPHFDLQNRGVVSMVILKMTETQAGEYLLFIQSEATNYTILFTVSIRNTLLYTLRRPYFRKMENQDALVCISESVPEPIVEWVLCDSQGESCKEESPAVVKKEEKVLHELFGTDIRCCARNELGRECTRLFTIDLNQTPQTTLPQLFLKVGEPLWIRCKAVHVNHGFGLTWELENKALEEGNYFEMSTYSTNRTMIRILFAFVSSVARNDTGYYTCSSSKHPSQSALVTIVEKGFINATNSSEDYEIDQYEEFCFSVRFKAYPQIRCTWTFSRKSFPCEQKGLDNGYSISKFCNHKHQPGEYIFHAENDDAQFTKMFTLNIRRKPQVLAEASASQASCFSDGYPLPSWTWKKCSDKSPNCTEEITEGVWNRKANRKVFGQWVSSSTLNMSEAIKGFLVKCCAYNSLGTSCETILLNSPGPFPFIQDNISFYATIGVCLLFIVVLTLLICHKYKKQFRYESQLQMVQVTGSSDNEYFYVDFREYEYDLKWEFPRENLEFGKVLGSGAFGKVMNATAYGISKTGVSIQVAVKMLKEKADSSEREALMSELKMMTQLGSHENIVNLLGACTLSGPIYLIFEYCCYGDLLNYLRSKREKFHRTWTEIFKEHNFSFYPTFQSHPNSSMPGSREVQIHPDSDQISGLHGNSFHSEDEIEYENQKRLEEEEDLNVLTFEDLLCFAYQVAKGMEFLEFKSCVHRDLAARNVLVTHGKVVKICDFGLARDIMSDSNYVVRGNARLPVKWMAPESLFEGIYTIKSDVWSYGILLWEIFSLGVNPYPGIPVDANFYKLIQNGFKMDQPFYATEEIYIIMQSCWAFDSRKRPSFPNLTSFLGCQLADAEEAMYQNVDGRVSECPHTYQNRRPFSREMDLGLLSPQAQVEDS
Put plainly: FLT3-ITD biochemical kinase assay (AlphaScreen). The procedure, abridged: (§1)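 AlphaScreen read-out of tyrosine phosphorylation of a 30 nM biotinylated poly(Glu4-Tyr) substrate, captured on streptavidin donor and PY20 acceptor beads at room temperature. ATP for IC50 work was 100 μM with FLT3-ITD and 10 μM with FLT3-D835Y; reduced 580 nm proximity signal reflects kinase inhibition.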
Background: Bead proximity is the source of the signal in Alpha formats.

Experiment [2] deals with c-Kit (Homo sapiens, UniProt P10721). Put plainly: c-Kit biochemical assay (per US 2007/0032519). The procedure, abridged: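 Biochemical kinase inhibition run per US 2007/0032519; values reported as binned IC50 ranges (0.0001–1 μM, 1–10 μM, 10–200 μM).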
Chain of c-Kit (P10721 26-976): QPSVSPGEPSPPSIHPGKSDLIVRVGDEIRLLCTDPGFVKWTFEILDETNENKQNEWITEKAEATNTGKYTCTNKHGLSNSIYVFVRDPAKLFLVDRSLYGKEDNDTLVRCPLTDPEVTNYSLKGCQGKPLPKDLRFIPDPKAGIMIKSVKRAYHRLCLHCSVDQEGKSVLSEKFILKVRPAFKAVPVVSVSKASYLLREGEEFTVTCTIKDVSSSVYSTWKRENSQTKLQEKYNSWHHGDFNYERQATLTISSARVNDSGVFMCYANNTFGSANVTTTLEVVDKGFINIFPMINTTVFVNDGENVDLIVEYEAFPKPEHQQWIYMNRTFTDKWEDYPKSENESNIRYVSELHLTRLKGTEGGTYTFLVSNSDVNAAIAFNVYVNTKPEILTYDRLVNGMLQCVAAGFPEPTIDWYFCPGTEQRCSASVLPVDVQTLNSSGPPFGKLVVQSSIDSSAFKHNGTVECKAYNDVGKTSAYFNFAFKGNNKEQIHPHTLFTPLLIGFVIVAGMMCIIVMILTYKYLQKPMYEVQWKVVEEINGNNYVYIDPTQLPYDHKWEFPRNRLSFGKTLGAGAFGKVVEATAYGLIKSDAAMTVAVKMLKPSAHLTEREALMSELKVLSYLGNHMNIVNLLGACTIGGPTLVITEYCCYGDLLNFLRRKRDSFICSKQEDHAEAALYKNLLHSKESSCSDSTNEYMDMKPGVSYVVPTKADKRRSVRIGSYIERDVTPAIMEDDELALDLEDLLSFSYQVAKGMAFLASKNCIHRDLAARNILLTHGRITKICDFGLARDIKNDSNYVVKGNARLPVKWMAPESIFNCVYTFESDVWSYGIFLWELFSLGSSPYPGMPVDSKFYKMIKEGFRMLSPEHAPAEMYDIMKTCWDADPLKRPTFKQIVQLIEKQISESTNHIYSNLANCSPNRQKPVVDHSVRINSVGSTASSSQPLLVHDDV
Experiment [3] deals with T2, FLT3-D835Y (Homo sapiens, UniProt P36888, D835Y).
T2 construct: purchased Invitrogen PV3967
T2 sequence (P36888 27-993 D835Y): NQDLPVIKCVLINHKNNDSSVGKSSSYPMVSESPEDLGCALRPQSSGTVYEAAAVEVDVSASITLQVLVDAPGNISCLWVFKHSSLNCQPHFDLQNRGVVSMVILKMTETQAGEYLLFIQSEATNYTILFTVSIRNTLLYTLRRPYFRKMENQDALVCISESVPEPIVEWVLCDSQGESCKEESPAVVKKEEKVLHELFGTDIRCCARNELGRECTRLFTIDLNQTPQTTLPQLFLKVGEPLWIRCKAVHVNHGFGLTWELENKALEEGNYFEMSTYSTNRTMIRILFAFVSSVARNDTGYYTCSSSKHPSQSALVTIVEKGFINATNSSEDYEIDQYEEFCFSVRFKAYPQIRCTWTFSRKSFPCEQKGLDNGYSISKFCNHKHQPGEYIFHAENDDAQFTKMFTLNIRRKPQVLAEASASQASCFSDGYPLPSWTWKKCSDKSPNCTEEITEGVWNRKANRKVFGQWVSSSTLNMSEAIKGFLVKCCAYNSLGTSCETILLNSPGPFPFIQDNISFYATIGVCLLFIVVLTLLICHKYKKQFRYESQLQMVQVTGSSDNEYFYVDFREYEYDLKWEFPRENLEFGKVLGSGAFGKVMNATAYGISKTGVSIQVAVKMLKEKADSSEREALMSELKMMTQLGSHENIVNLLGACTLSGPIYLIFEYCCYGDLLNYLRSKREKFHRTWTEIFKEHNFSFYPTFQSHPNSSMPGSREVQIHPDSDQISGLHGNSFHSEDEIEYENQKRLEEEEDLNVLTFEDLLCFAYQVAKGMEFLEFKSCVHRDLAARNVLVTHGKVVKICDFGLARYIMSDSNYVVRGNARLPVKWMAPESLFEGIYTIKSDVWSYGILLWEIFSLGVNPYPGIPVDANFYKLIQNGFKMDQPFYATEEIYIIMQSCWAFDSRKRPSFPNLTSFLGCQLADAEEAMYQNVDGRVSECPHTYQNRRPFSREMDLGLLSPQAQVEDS
Put plainly: FLT3-D835Y biochemical kinase assay (AlphaScreen). The procedure, abridged: as §1

As a reminder, the IC50 is the midpoint of a concentration-inhibition curve. On to `CCS(=O)(=O)Nc1cccc(-c2cnc3[nH]cc(-c4ccc5ncn(C)c5c4)c3c2)c1` [P-094, N-[3-[3-(3-methylbenzimidazol-5-yl)-1H-pyrrolo[2,3-b]pyridin-5-yl]phenyl]ethanesulfonamide], for which the results for the IC50 in experiment [1], in experiment [2] and in experiment [3] were 0.0001 to 1 µM, 1 to 10 µM and 0.0001 to 1 µM, respectively.
Turning to `COc1cc(-c2cnc3[nH]cc(-c4ccc5ncn(C)c5c4)c3n2)ccn1` [P-045, 2-(2-methoxy-4-pyridyl)-7-(3-methylbenzimidazol-5-yl)-5H-pyrrolo[2,3-b]pyrazine], the IC50 fell in the range of 0.0001 to 1 µM in experiment [1], 10 to 200 µM in experiment [2] and 0.0001 to 1 µM in experiment [3].
On to `COc1cc(-c2cnc3[nH]cc(-c4ccc5ncn(C)c5c4)c3c2)ccn1` [P-042, 5-(2-methoxy-4-pyridyl)-3-(3-methylbenzimidazol-5-yl)-1H-pyrrolo[2,3-b]pyridine], for which the IC50 in experiment [1] lay in the range of 0.0001 to 1 µM; in experiment [2], 1 to 10 µM; in experiment [3], 0.0001 to 1 µM.
For the molecule `Cn1cnc2ccc(-c3c[nH]c4ncc(F)cc34)cc21` [P-028, 5-fluoro-3-(3-methylbenzimidazol-5-yl)-1H-pyrrolo[2,3-b]pyridine], the IC50 in experiment [1] lay within 0.0001 to 1 µM; in experiment [2], 10 to 200 µM; in experiment [3], 0.0001 to 1 µM.
With `Cn1cnc2ccc(-c3c[nH]c4ncc(-c5cnc(C6CC6)nc5)cc34)cc21` [P-039, 5-(2-cyclopropylpyrimidin-5-yl)-3-(3-methylbenzimidazol-5-yl)-1H-pyrrolo[2,3-b]pyridine], the IC50 in experiment [1] lay in the range of 0.0001 to 1 µM; in experiment [2], 1 to 10 µM; in experiment [3], 0.0001 to 1 µM.
Turning to `COc1cccc(-c2cnc3[nH]cc(-c4ccc5ncn(C)c5c4)c3c2)c1` [P-088, 5-(3-methoxyphenyl)-3-(3-methylbenzimidazol-5-yl)-1H-pyrrolo[2,3-b]pyridine], the IC50 in experiment [1] lay in the range of 0.0001 to 1 µM; in experiment [2], 1 to 10 µM; in experiment [3], 0.0001 to 1 µM.
Regarding `COc1cc(-c2cnc3[nH]cc(-c4ccc5ncn(C)c5c4)c3c2)cc(C)n1` [P-124, 5-(2-methoxy-6-methyl-4-pyridyl)-3-(3-methylbenzimidazol-5-yl)-1H-pyrrolo[2,3-b]pyridine], the IC50 in experiment [1] was 0.0001 to 1 µM; in experiment [2], 10 to 200 µM; in experiment [3] it was 0.0001 to 1 µM.
Consider `COc1cnc2[nH]cc(-c3ccc4[nH]nc(C)c4c3)c2c1` [P-083, 5-methoxy-3-(3-methyl-1H-indazol-5-yl)-1H-pyrrolo[2,3-b]pyridine], for which the IC50 lay within 0.0001 to 1 µM in experiment [1], 1 to 10 µM in experiment [2] and 0.0001 to 1 µM in experiment [3].
As for `CC(C)(C)n1cnc2ccc(-c3c[nH]c4ncc(C5=CCN(C(=O)C6CC6)C5)nc34)cc21` [P-127, [3-[7-(3-tert-butylbenzimidazol-5-yl)-5H-pyrrolo[2,3-b]pyrazin-2-yl]-2,5-dihydropyrrol-1-yl]-cyclopropyl-methanone], the results for the IC50 in experiment [1], in experiment [2] and in experiment [3] were 0.0001 to 1 µM, 1 to 10 µM and 0.0001 to 1 µM, respectively.
With `CS(=O)(=O)Nc1cccc(-c2cnc3[nH]cc(-c4ccc5ncsc5c4)c3c2)c1` [P-053, N-[3-[3-(1,3-benzothiazol-6-yl)-1H-pyrrolo[2,3-b]pyridin-5-yl]phenyl]methanesulfonamide], the IC50 in experiment [1] is 0.0001 to 1 µM; in experiment [2], 1 to 10 µM; in experiment [3], 0.0001 to 1 µM.
Turning to `COc1ccc2c(-c3ccc4ncn(C)c4c3)c[nH]c2n1` [P-034, 6-methoxy-3-(3-methylbenzimidazol-5-yl)-1H-pyrrolo[2,3-b]pyridine], the IC50 in experiment [1] lay within 1 to 10 µM; in experiment [2], 10 to 200 µM; in experiment [3], 1 to 10 µM.
Turning to `COc1cnc2[nH]cc(-c3ccc4ncnc(OC)c4c3)c2c1` [P-043, 4-methoxy-6-(5-methoxy-1H-pyrrolo[2,3-b]pyridin-3-yl)quinazoline], the IC50 in experiment [1] is 0.0001 to 1 µM; in experiment [2], 1 to 10 µM; in experiment [3] it was 0.0001 to 1 µM.
As for `COc1ccc(-c2cnc3[nH]cc(-c4ccc5ncn(C)c5c4)c3n2)cn1` [P-041, 2-(6-methoxy-3-pyridyl)-7-(3-methylbenzimidazol-5-yl)-5H-pyrrolo[2,3-b]pyrazine], the values for the IC50 in experiment [1], in experiment [2] and in experiment [3] were 0.0001 to 1 µM, 1 to 10 µM and 0.0001 to 1 µM, respectively.
As to `COc1cnc2[nH]cc(-c3ccc4[nH]nnc4c3)c2c1` [P-014, 5-(5-methoxy-1H-pyrrolo[2,3-b]pyridin-3-yl)-1H-benzotriazole], the IC50 in experiment [1] is 0.0001 to 1 µM; in experiment [2] it was 10 to 200 µM; in experiment [3], 0.0001 to 1 µM.
In the case of `CS(=O)(=O)Nc1cccc(-c2cnc3[nH]cc(-c4ccc5ncn(C6CCCC6)c5c4)c3n2)c1` [P-070, N-[3-[7-(3-cyclopentylbenzimidazol-5-yl)-5H-pyrrolo[2,3-b]pyrazin-2-yl]phenyl]methanesulfonamide], the IC50 in experiment [1] fell in the range of 0.0001 to 1 µM; in experiment [2], 1 to 10 µM; in experiment [3] it was 0.0001 to 1 µM.
With `CCCS(=O)(=O)Nc1cccc(-c2cnc3[nH]cc(-c4ccc5ncn(C)c5c4)c3c2)c1` [P-121, N-[3-[3-(3-methylbenzimidazol-5-yl)-1H-pyrrolo[2,3-b]pyridin-5-yl]phenyl]propane-1-sulfonamide], the IC50 in experiment [1] fell in the range of 0.0001 to 1 µM; in experiment [2], 1 to 10 µM; in experiment [3] it was 0.0001 to 1 µM.
On to `COc1ncc(-c2cnc3[nH]cc(-c4ccc5ncn(C(C)(C)C)c5c4)c3n2)cc1F` [P-385, 7-(3-tert-butylbenzimidazol-5-yl)-2-(5-fluoro-6-methoxy-3-pyridyl)-5H-pyrrolo[2,3-b]pyrazine], for which the IC50 in experiment [1], in experiment [2] and in experiment [3] was 0.0001 to 1 µM in each case.
`Cn1cnc2ccc(-c3c[nH]c4ncc(OCC#N)cc34)cc21` [P-084, 2-[[3-(3-methylbenzimidazol-5-yl)-1H-pyrrolo[2,3-b]pyridin-5-yl]oxy]acetonitrile]: the concentration for half-maximal inhibition (IC50) in experiment [1] was in the range of 0.0001 to 1 µM; in experiment [2] it was 1 to 10 µM; in experiment [3], 0.0001 to 1 µM.
On to `Cc1nc2cc(-c3c[nH]c4ncccc34)ccc2[nH]1` [P-012, 2-methyl-5-(1H-pyrrolo[2,3-b]pyridin-3-yl)-1H-benzimidazole], for which the figures for the IC50 in experiment [1], in experiment [2] and in experiment [3] were 1 to 10 µM, 10 to 200 µM and 1 to 10 µM, respectively.
In the case of `CCCn1cnc2cc(-c3c[nH]c4ncc(OC)cc34)ccc21` [P-056, 5-methoxy-3-(1-propylbenzimidazol-5-yl)-1H-pyrrolo[2,3-b]pyridine], the IC50 in experiment [1] lay in the range of 0.0001 to 1 µM; in experiment [2] it was 10 to 200 µM; in experiment [3], 0.0001 to 1 µM.
Take `Cc1nn(C(C)C)cc1-c1cnc2[nH]cc(-c3ccc4ncn(C(C)(C)C)c4c3)c2n1` [P-381, 7-(3-tert-butylbenzimidazol-5-yl)-2-(1-isopropyl-3-methyl-pyrazol-4-yl)-5H-pyrrolo[2,3-b]pyrazine]: the IC50 in experiment [1], in experiment [2] and in experiment [3] was 0.0001 to 1 µM in each case.
